# “And” between values parts separate entries of the source, which are not always exact repeats. Equal values may be shown once. Read-outs that look alike come from different tables or passages of the source.
# Experiments:
# PC-3 cells = test: Resazurin cytotoxicity assay, PC-3; assay type: cell-based, human; conditions: highest concentration 40 μM; bound = highest concentration with < 50 % inhibition; read-out: PC-3 cytotoxicity IC50 ± SEM
# Text: (§1) An initial indication of compound selectivity over human cells had previously been obtained through comparison of the compounds’ IC50 values against P. falciparum asexual stages and HEK293 [22]. In the present study, the selectivity investigation was extended to a small panel of human cancer cell lines, namely the estrogen receptor (ER)-positive breast cancer cell line MCF7, the ER-negative MDA-MB-231, as well as the human prostate cancer line, PC-3. Additionally, the cytotoxic effects on mouse embryonic fibroblast cell line 3T3, which serves as the host cell for T. cruzi in our image-based amastigote assay, were investigated.
# (§2) Cytotoxicity of the compounds was assessed against a panel of human cancer cell lines, namely the estrogen receptor (ER)-positive breast cancer cell line MCF7, the ER-negative MDA-MB-231 and the prostate cancer line PC-3. All the cell lines were purchased from ATCC and maintained as previously described. Two biological replicates consisting of two technical replicates each were performed to generate concentration response curves (CRC) with a final highest concentration of 40 μM. A resazurin-based assay was utilized to determine cell viability as described earlier. Additionally, the cytotoxic effects on the mouse embryonic fibroblast cell line 3T3 were assessed as part of the Trypanosoma cruzi amastigote image-based assay as outlined in [35].
# [1] = system: T. b. brucei trypomastigote; test: T. b. brucei resazurin (Alamar Blue) viability assay; assay type: cell-based, Trypanosoma brucei brucei
# Protocol: Compound activity against two members of another clinically important group of parasites, the kinetoplastids T. cruzi and T. b. brucei was determined. The sensitive high content imaging assay used to determine compound activity against T. cruzi assesses the intracellular amastigote life form of the parasite in the 3T3 host cell. […] The T. b. brucei assay employs the REDOX indicator Alamar Blue to assess viability, which was developed into a 384-well assay format.
# Compound activity against T. b. brucei was assessed in a resazurin-based viability assay in concentration-response assays, without technical repeats, in two experimental replicates at a highest concentration of 40 μM, as previously described.
# [2] = system: P. falciparum developmental stages; test: Activity across all P. falciparum life-cycle stages tested (asexual, early and late gametocytes); assay type: cell-based, Plasmodium falciparum; conditions: early and late stage gametocytes; for IC50: read-out: IC50 range across all P. falciparum life-cycle stages tested
# Protocol: (§3) Induction of P. falciparum gametocyte differentiation and gametocyte culturing were performed as previously described. Compound activity against early stage gametocytes (covering the development from stage I to IIb/III) and late stage gametocytes (stage IV to V) of the recombinant P. falciparum line NF54^Pfs16 was assessed in concentration-response assays, in two experimental replicates consisting of two technical repeats each, at a highest concentration of 40 μM, as described earlier.
# [3] = system: P. falciparum asexual blood stage; conditions: as previously reported; read-out: Asexual P. falciparum IC50 ± SEM; cited from earlier work
# [4] = system: P. falciparum late stage gametocytes (PfLG, stages IV-V); test: Chemical rescue with CoA pathway intermediates, late stage gametocytes; assay type: cell-based, Plasmodium falciparum; conditions: inhibitor at IC80; for Percent rescue ± SEM by pantethine, PfLG: pantethine 5 mM; for Percent rescue ± SEM by pantothenate, PfLG: pantothenate 312.5 μM; for Percent rescue ± SEM by CoA, PfLG: CoA 1.8 mM; for Percent rescue ± SEM by dephospho CoA, PfLG: dP-CoA 2 mM
# Protocol: Pantothenate is the first substrate of the pathway (Fig. 1) and its addition was intended to rescue the action of possible competitive inhibitors of the first enzyme, PanK. […] It is not known, whether P. falciparum is capable of pantetheine phosphorylation for utilization in CoA synthesis. […] Finally, the rescue ability of dP-CoA, the final substrate of CoA synthesis, was tested. […] Inhibitors competing with dP-CoA for DPCK binding were expected to be displaced, thereby rescuing parasite survival, by dP-CoA supplementation in a concentration dependent manner.
# An imaging based assay was utilised to assess the chemical rescue on asexual stages of P. falciparum as described previously. All the pathway intermediates were purchased from Sigma. CoA and dP-CoA were dissolved in sterile distilled water to obtain a 20 mM stock solution, which was then aliquoted and stored at -20 °C until use. […] Each pathway intermediate was tested on the parasites at a range of concentrations to assess potential toxicity. […] On early stage P. falciparum gametocytes the same concentrations as for CoA were tested for dP-CoA; against asexual blood stage P. falciparum, late stage gametocytes and Trypanosoma b. brucei five dP-CoA concentrations were tested (2 mM, 1.5 mM, 1 mM, 0.75 mM and 0.5 mM).
# The same concentration ranges of the CoA pathway intermediates were supplemented to parasites treated with the experimental compounds. The inhibitors were used at their respective final assay concentration of IC80 (as determined previously in the corresponding P. falciparum development stage or T. b. brucei assay). […] The negative control used in each assay was 0.4% DMSO, whilst the positive control was 2 μM artemisinin for asexual P. falciparum blood stages and 5 μM puromycin for all gametocyte stages and T. b. brucei. The percentage growth of the respective parasites following compound treatment was determined using Microsoft ® Excel 2010, and compared with their controls. All rescue assays were performed as two independent experiments each in duplicate point.
# [5] = target: late stage gametocytes (stage IV to V) of P. falciparum line NF54^Pfs16; test: Gametocyte luciferase assay, late stage; assay type: cell-based, Plasmodium falciparum
# Text: To investigate a potential role of CoA biosynthesis for host to vector transmission of the malaria parasite, we investigated the activity of our compounds on P. falciparum gametocytes, the sexual stages of P. falciparum, essential for malaria transmission. […] Parasite stage-specificity and gametocytocidal activity of the compounds was therefore investigated, utilizing a luciferase-based approach on early stage (development from stage I to IIb/III [30]) and late stage (IV to V [51]) gametocytes.
# as §3
# T. cruzi amastigotes = test: T. cruzi amastigote image-based assay in 3T3 host cells; assay type: cell-based, Trypanosoma cruzi; conditions: for T. cruzi amastigote percent inhibition at the highest concentration tested: 40 µM per footnote, given if an IC50 could not be calculated; for IC50: in 3T3 host cells, read-out: T. cruzi amastigote IC50 ± SEM
# Protocol: The next step taken was to determine whether the activity of the compounds was confined to P. falciparum, or whether it extended to other protozoan parasites. Compound activity against two members of another clinically important group of parasites, the kinetoplastids T. cruzi and T. b. brucei was determined. The sensitive high content imaging assay used to determine compound activity against T. cruzi assesses the intracellular amastigote life form of the parasite in the 3T3 host cell. It is important to simultaneously assess compound activity against 3T3 cells to determine potential cytotoxicity against the host cell line, since this could result in a false positive outcome. The T. b. brucei assay employs the REDOX indicator Alamar Blue to assess viability, which was developed into a 384-well assay format.
# Compound activity against T. cruzi amastigotes was assessed in an image-based assay in single point concentration-response and three biological replicates, at a final highest compound concentration of […], as previously described.
# [6] = system: panel of human cancer cell lines (MCF7, MDA-MB-231, PC-3); test: Cytotoxicity across the panel of cell lines; assay type: cell-based; conditions: for cytotoxicity against any of the cell lines investigated (in words): up to the highest tested concentration of 40 μM; for IC50: MCF7, MDA-MB-231, PC-3, read-out: IC50 range against the cancer cell lines
# Text: as §1, §2
# MDA-MB-231 cells = test: Resazurin cytotoxicity assay, MDA-MB-231; assay type: cell-based, human; conditions: highest concentration 40 μM; bound = highest concentration with < 50 % inhibition; read-out: MDA-MB-231 cytotoxicity IC50 ± SEM
# Text: as §1, §2
# [7] = read-out: Late stage gametocyte IC50
# [8] = highest concentration 40 μM, read-out: Late stage gametocyte IC50 ± SEM
Structure (SMILES),IC50 (PC-3 cells) [nM],"T. b. brucei trypomastigote percent inhibition at the highest concentration tested ([1]; 40 µM, given if an IC50 could not be calculated) [%]",activity against all P. falciparum development stages tested (in words) [2],IC50 [2] [nM],IC50 [3] [nM],"Percent rescue ± SEM by pantethine, PfLG [4]","Percent rescue ± SEM by pantothenate, PfLG [4]","IC50 [5, 7] [nM]",T. cruzi amastigote percent inhibition at the highest concentration tested (T. cruzi amastigotes) [%],cytotoxicity against any of the cell lines investigated (in words) [6],IC50 (MDA-MB-231 cells) [nM],IC50 ([1]; read-out: T. b. brucei IC50) [nM],"IC50 [5, 8]",IC50 (T. cruzi amastigotes) [nM],IC50 [6] [nM],"IC50 ([1]; highest concentration 40 μM, read-out: T. b. brucei trypomastigote IC50 ± SEM)","Percent rescue ± SEM by CoA, PfLG [4] [%]","Percent rescue ± SEM by CoA, PfLG ([4]; listed as STK740987)","Percent rescue ± SEM by dephospho CoA, PfLG [4] [%]","Percent rescue ± SEM by dephospho CoA, PfLG ([4]; listed as STK740987)"
Cc1csc(Sc2ncnc3sccc23)n1 [Amb180780],> 40000,100,sub-micromolar IC50 values,60 to 120,120 ± 20,No,No,70,21,no or only negligible cytotoxicity,> 40000,–,–,–,–,–,–,–,–,–
CC(=O)c1ccc2c3c(onc13)-c1ccccc1C2=O [Amb3377585],5500 ± 640,–,–,–,150 ± 10,–,–,–,–,–,5600 ± 330,200,6220 ± 2500 nM,13300 ± 2350,5000 to 9000,–,–,–,–,–
CC(=O)C1=C(c2ccccc2)C(=O)c2ccccc2C1=O [Amb4317088],1400 ± 60,–,"moderate, single digit micromolar activity",–,1230 ± 60,No,No,–,–,–,870 ± 40,160,2240 nM and 2200 nM,4300 ± 270,870 to 4600,–,–,–,–,–
CC1=CC(=O)C(C(C)C)=C/C1=N/OS(=O)(=O)c1ccccc1 [STK 740987],> 20000,–,sub-micromolar IC50 values,380 to 460,380 ± 60,No,No,460,54,no or only negligible cytotoxicity,> 40000,–,–,–,–,1020 nM and 1000 nM,53.1 ± 0.5,approximately 50%,50.3 ± 0.8,approximately 50%
